Values quoted from earlier work, collected in publication doi:10.1101/2023.11.06.565863v1 (bioRxiv, 2023).

Key:
[1] = tested on: R1441C-LRRK2 MEFs
[2] = tested on: R1441C-LRRK2 MEFs; remark: listed apart in the source

## C[C@@H]1CN(c2cc(-c3n[nH]c4ccc(OC5(C)CC5)cc34)ncn2)C[C@H](C)O1 [MLi2]
[1]
  Ciliogenesis defects of R1441C-LRRK2 MEFs vs littermate wildtype MEFs: reverted
[2]
  Centrosome cohesion defects of R1441C-LRRK2 MEFs vs littermate wildtype MEFs: reverted
